We go through one substance from patent US11324795B2, “Composition comprising Hordeum vulgare extract for preventing or treating short stature” (UNIVERSITY-INDUSTRY COOPERATION GROUP OF KYUNG HEE …, priority 2013, dated 2022).

The test system of the assay is Sprague-Dawley female rats. In words: Evaluation of longitudinal bone growth effect, tetracycline staining method. It is filed as in vivo, rat. On the procedure: As experimental animals, four-week-old Sprague-Dawley female rats (Samtako, Korea) weighing about 100 g were purchased and cared for so as to be acclimatized to the experimental environment while supplying sufficient feed and water. After about 1 week for the acclimatization period, animal testing was performed.
Two days after administration, 20 mg/kg of tetracycline hydrochloride (Sigma T7660) was injected intraperitoneally to all test groups. Two days thereafter, the rats were sacrificed via cervical dislocation, after which the left and right tibiae were removed, fixed in a fixing solution at 4° C. for 3 days, allowed to stand in 50 mM EDTA for 1 day, demineralized, and immersed in 30% sucrose overnight to protect freezing. The bone tissue thus dehydrated was frozen, and cut into 40 μm sections using a sliding microtome (HM440E, Zeiss, Germany), thus collecting sagittal sections of the proximal part of the tibia. To measure the bone growth, each sagittal section of the proximal part of the tibia, 40 μm thick, was placed on a slide glass, dried, and then observed under UV light at a wavelength of 400 nm using a fluorescence microscope (FIG. 1). Using image analysis software ImageJ (NIH, USA), the length between the fluorescence bands formed by the deposition of tetracycline in the growth plate and the bone tissue was measured, and Student's t-test and ANOVA test for comparison with a control group were performed in order to determine the growth effect.
The Hordeum vulgare extract prepared in Example 1 was administered after having been dissolved in a concentration of 30 mg/kg in type II distilled water in a volume of 1.0 ml per 100 g of rat weight, and as a control group, the same volume of type II distilled water was administered. The Hordeum vulgare extract was orally administered two times a day for a total of four days, starting from 2 days before the administration of tetracycline until the test termination day. […]

For the substance “Positive control group: recombinant human growth hormone (rhGH; LG Lifescience, Eutropin®)”, for the setting “Table 1, extract 30 mg/kg (p.o.), positive control 20 μg/kg (s.c.)”, the “Longitudinal bone growth rate (%)” value was 6.6%. Besides, where the note is “proximal tibia, tetracycline band length, 4 days dosing, extract 30 mg/kg p.o. two times a day, rhGH 20 μg/kg s.c. once a day”, the “longitudinal bone growth rate” value is 360.1±35.8 μm/day. Moreover, the “longitudinal bone growth rate, % higher than normal control group” value (vs 337.8±30.0 μm/day in normal control group, extract 30 mg/kg p.o. (p<0.001), rhGH 20 μg/kg s.c. (not significant)) was found to be 6.6%.
